Source: BindingDB's records for doi:10.7270/Q2W37TVH (Novartis Pharma, 1997)

Target: Dihydroorotate dehydrogenase (quinone), mitochondrial (Homo sapiens, UniProt Q02127)
Assay: Spectrophotometric Assay
Source text: Spectrophotometric assay using crude human, recombinant DHODHase.

Chain of Dihydroorotate dehydrogenase (quinone), mitochondrial (Q02127 whole entry): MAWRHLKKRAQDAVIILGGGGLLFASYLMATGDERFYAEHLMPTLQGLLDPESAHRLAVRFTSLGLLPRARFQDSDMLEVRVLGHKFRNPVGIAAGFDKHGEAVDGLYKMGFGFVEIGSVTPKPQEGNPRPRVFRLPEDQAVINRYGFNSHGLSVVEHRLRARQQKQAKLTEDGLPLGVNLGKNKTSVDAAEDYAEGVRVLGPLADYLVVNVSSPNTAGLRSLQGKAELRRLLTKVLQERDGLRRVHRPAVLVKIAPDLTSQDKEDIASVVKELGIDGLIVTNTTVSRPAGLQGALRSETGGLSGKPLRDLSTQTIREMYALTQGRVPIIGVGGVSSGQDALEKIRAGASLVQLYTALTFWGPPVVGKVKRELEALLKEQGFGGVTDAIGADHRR

SMILES	IC50 [µM]
N#C/C(C(=O)Nc1ccc(C(F)(F)F)cc1)=C1\CCCCO1 [Tetrahydropyranyl derivative, 8 (Z)]	> 50
CC(C)(C)CCC(=O)C(C#N)C(=O)Nc1ccc(C(F)(F)F)cc1 (stereo not drawn) [Alpha-cyano-beta-hydroxy enamide, 5]	0.13
N#C/C(C(=O)Nc1ccc(C(F)(F)F)cc1)=C1/CCCCO1 [Tetrahydropyranyl derivative, 8 (E)]	> 50
CC(=O)C(C#N)C(=O)Nc1ccccc1 (stereo not drawn) [Alpha-cyano-beta-hydroxy enamide, 2]	15.2
CC(=O)C(C#N)C(=O)Nc1ccc(C#N)cc1 (stereo not drawn) [Alpha-cyano-beta-hydroxy enamide, 3]	1.3
N#C/C(C(=O)Nc1ccc(C(F)(F)F)cc1)=C1\CCCO1 [Tetrahydrofuranyl derivative, 7 (Z)]	> 50
N#C/C(C(=O)Nc1ccc(C(F)(F)F)cc1)=C1/CCOC1 [Tetrahydrofuranyl derivative, 7 (E)]	> 50
N#Cc1ccc(NC(=O)C(C#N)C(=O)C2CC2)cc1 (stereo not drawn) [Alpha-cyano-beta-hydroxy enamide, 6]	0.6
CC(C)(C)C(=O)C(C#N)C(=O)Nc1ccc(C(F)(F)F)cc1 (stereo not drawn) [Alpha-cyano-beta-hydroxy enamide, 4]	16.2
